In the case of `CSCC(=O)[C@H](Cc1ccc(O)cc1)NC(=O)[C@H](CC(C)C)NC(=O)OCc1ccccc1`, the melting point – broadly, the temperature, or range, at which the solid turns liquid – fell in the range of 108 to 111 °C. In turn, `CCCCCCC(C(=O)N[C@@H](CC(=O)O)C(=O)O)n1cnc2cc(-c3ccccc3-c3nn[nH]n3)ccc21` (stereo partly drawn) yielded a melting point of 190 to 195 °C.

For `COc1ccccc1C(=O)Nc1cc(C(=O)NCc2ccccc2)ccn1`, the melting point lay in the range of 205 to 207 °C. To `Nc1cccc(-c2ccc(CCN3CCC(N)CC3)cc2)n1` belongs 190 to 195 °C; to `CCCC(=O)Oc1cc(C(C)C)ccc1C1(OC(=O)CCC)C(=O)c2ccccc2C1=O`, 98 to 102 °C. To `N#CC=C1CCc2cnc3c(c21)CCO3` belongs 153 to 155 °C; to `O=C1Cc2cc3ccccc3nc2N1`, 261 °C. To `CCOC(=O)NN=Cc1nc(Cc2ccccc2)[nH]c1C` belongs 190 to 192 °C. Turning to `COC1(c2cc(F)cc(CC#COC#CCc3cc(F)cc(C4(OC)CCOCC4)c3)c2)CCOCC1`, the melting point fell in the range of 75 to 77 °C. To `CCCCOc1cc(CCS(=O)(=O)NC(=O)OC(C)C)n(Cc2ccc(Cl)cc2Cl)n1` belongs 120 to 121 °C; to `O=c1[nH]c2ccccc2c2cc(C(O)c3ccccc3)nn12` (stereo not drawn), 231 to 233 °C. Compound `CN1C(=O)c2ccccc2N=C(N)C1c1ccccc1` (stereo not drawn) registered a melting point of 282 to 286 °C. Next, `Cc1c(C)c2c(c(C)c1NC(=O)OC(C)(C)C)C(O)(c1ccc(C(C)C)cc1)C(C)(C)O2` (stereo not drawn): 155 to 157 °C; `Oc1ccc2c(c1-c1ccccc1)CCCC=C2c1ccc(OCCCCCSc2ccc(C(F)(F)F)cc2)cc1`: 189 °C; `COC(=O)c1c(C(=O)OC)c(-c2nccnc2C)n(NS(=O)(=O)c2ccc(C)cc2)c1C`: 155 to 156 °C. To `O=C1c2ccccc2-c2ccccc2C1(O)C(F)(F)F` (stereo not drawn) belongs 148 to 151 °C; to `CCCCOC(=O)CS(=O)(=O)C=C1SC=CS1`, 87 to 88 °C; to `CCCc1c(C(=O)C(C)C)c2ccc(CC(=O)OC)cc2n1Cc1cc2c(cc1Cl)OCO2`, 119 to 120 °C.

Compound `COc1ccc2c(c1)C1(CC#N)CCC(=O)C=C1CC2` (stereo not drawn) showed a melting point of 133 to 134 °C. Next, `CCCCCCCCCCOc1ccc(C(=O)Nc2cc(CCC(=O)CC3CCCCCC3)ccc2C(C)(C)C)cc1`: 98 to 99 °C; `C[C@H]1[C@H](N2C(=O)c3ccccc3C2=O)C(=O)N1O` (relative stereo): 94 to 96 °C. Next, `CCCCN(Cc1ccc(-c2ccccc2-c2nnnn2C(c2ccccc2)(c2ccccc2)c2ccccc2)cc1)c1ncncc1C(=O)OCC`: 142 to 144 °C.

In turn, `CC1(C)C(=O)Nc2cc3c(cc21)OC(O)N3` (stereo not drawn) returned a melting point of 297 to 299 °C. To `CCCCc1oc2ccccc2c1-c1ncc(-c2ccc3cc(OCC(=O)O)ccc3c2)o1` belongs 214 to 216 °C.

Compound `CCCCCCCCCCCCn1nnc(C(C(=O)Nc2c(C(C)C)cccc2C(C)C)N2CCSCC2)n1` (stereo not drawn) returned a melting point of 97 to 98 °C. Next, `CC(=O)NCC1CN(c2ccc(N3CCN(C(=O)COC(=O)CN4CCN(C)CC4)CC3)c(F)c2)C(=O)O1` (stereo not drawn): 128 to 129 °C; `Cc1c(O)cc(O)cc1C(=O)OCc1ccc([N+](=O)[O-])cc1`: 160 to 163 °C.

Turning to `COc1ccc2c3c(n(C)c2c1)SCCC3=O`, the melting point was 204 to 206 °C. To `COc1ccc(C(=O)c2[nH]c(=S)[nH]c2C)cc1` belongs 200 °C; to `N=C(Nc1ccc2c(c1)CNCCO2)c1ccsc1`, 150 to 152 °C; to `O=C(NC(Cc1ccncc1)C(=O)O)OCc1cc2cc(-c3cccnc3)ccc2o1` (stereo not drawn), 257 °C. `COc1cnc(Cl)n2nc(N)nc12` yielded a melting point of 251 °C. To `CCCCN1C(=O)c2cnc(-c3ccccc3)nc2N(C(=O)CN2CCN(C)CC2)c2ccccc21` belongs 90 to 94 °C.

The values are drawn from a melting point compilation (Tetko et al.; mined from patent text by program, amines drawn as free bases though some values may be those of a salt).
